Values belong to the molecule of their own block, whether it stands above or below them.
How the values were obtained:
[1] = Hydrolysis of bis(p-nitrophenyl)phosphate, initial rate of 4-nitrophenolate formation at 400 nm; type: biochemical
Procedure: The copper (II) complex of N,N′,N″-trimethyl-cis,cis-1,3,5-triaminocyclohexane prepared in accordance with the method of Example 2 (1 mM) was combined with bis(4-nitrophenyl)phosphate (1 mM) and HEPES (50 mM), pH 7.24, at 50° C. and incubated, while monitoring for an increase in absorbance at 400 nm. An aliquot was withdrawn and analyzed by reverse phase HPLC, eluted with a linear gradient of 100% 50 mM acetic acid/50 mM triethylamine to 100% methanol over thirty minutes. The signals observed in the reaction mixture corresponded to the predicted hydrolytic products, p-nitrophenyl phosphate (10.5 min) and 4-nitrophenolate (16.8 min), as well as unreacted bis(p-nitrophenyl)phosphate (20.2 min). Products were confirmed by co-injection of standards.
(§1) Measurements were performed as previously described (Deal et al. (Inorg. Chem. 1996), supra). Briefly, the initial rate of formation of 4-nitrophenolate was monitored spectrophotometrically at 400 nm for 1 hr or for less than 10% conversion of bis(p-nitrophenyl)phosphate to products. Reactions were run in sets of four, triplicate reaction mixtures and one reference. Spontaneous hydrolysis of the phosphate diester was corrected in the reference, which was identical to the reaction mixture, except lacking metal complex. The concentration of 4-nitrophenolate was calculated from the absorbance using an extinction coefficient of 18700 L mol^−1 cm^−1. The initial rate was obtained from the slope of the plots of 4-nitrophenolate concentration vs. time.

[2] = Deal et al. (Inorg. Chem. 1996); cited from earlier work
[3] = system: Chinese hamster V79 cells; assay: Cytotoxicity by macroscopic colony formation, surviving fraction of V79 cells; type: cell-based; settings: for treated cells that survive: concentration of 3 mM, FIG. 1
Procedure: Chinese hamster V79 cells were maintained in a 5% CO2/95% air humidified atmosphere at 37° C. in nutrient mixture F12 with 10% heat-inactivated fetal bovine serum and antibiotics. One day before each experiment, 5×10^5 V79 cells were plated into 100 mm petri dishes and incubated overnight The cells were exposed to the copper complex of N,N′,N″-triethyl-cis,cis-1,3,5-triaminocyclohexane or N,N,N″-triethyl-cis,cis-1,3,5-triaminocyclohexane or the corresponding ligand of N,N′,N″-triethyl-cis,cis-1,3,5-triaminocyclohexane or N,N′,N″-triethyl-cis,cis-1,3,5-triaminocyclohexane alone for 1 or 24 hours, after which they were rinsed, trypsinized, and plated for macroscopic colony formation. After incubating for 7 days, colonies were fixed with methanol/acetic acid and stained with crystal violet. Colonies larger than 50 cells were counted.

[4] = Hydrolysis of ethyl (p-nitrophenyl)phosphate; type: biochemical
Procedure: as §1
Bis(p-nitrophenyl)phosphate was hydrolyzed more rapidly than ethyl (p-nitrophenyl)phosphate, which was hydrolyzed more rapidly than p-nitrophenyl phosphate. Thus, the rate of metal-promoted hydrolysis is dependent on the electron-withdrawing ability of the leaving group. Leaving groups which are strongly electron-withdrawing are considered activated and hydrolyze more rapidly. […]

[5] = system: hypoxic MCF-7 human mammary carcinoma cells; assay: Cytotoxicity to hypoxic MCF-7 cells, surviving fraction; type: cell-based; settings: 1500 μM, 1 hour, FIG. 3
Procedure: (§2) MCF-7 human mammary carcinoma cells were maintained in a 5% CO2/95% air humidified atmosphere at 37° C. in RPMI 1640 with 10% heat-inactivated fetal bovine serum and antibiotics. For hypoxia experiments, 3×10^5 MCF-7 cells were plated into glass flasks, and incubated overnight The flasks were sealed with a rubber stopper, and two hypodermic needles were inserted to allow for gassing. Flasks were gassed with a 95% nitrogen/5% carbon dioxide mixture for one hour. The copper complex was added to the cells after they were hypoxic through a glass sidearm connected to the flask by a ground glass connection. Cells were incubated for 1 hour for experiments to assess the toxicity of the copper complex, then plated and incubated as described previously in Example 4.

[6] = system: hypoxic MCF-7 human mammary carcinoma cells; assay: Hypoxic irradiation with the copper complex, surviving fraction of MCF-7 cells; type: cell-based; settings: 15 minutes with complex, then irradiated, FIG. 4
Procedure: as §2, with “4. For hypoxic irradiation experiments, cells were incubated with the copper complex for 15 minutes, then irradiated, plated and incubated as described previously in Example 4. Cells were irradiated with an Eldorado 8 Cobalt-60 teletherapy machine (Theratronics International Ltd., Kanata, Ontario, Canada). The dose rate varied form 200 to 150 cGy/min during the course of this study. Decay corrections were done monthly, and full electron equilibrium was ensured for all irradiations.” for “4.”

Molecule: O=P(O)(O)OP(=O)(O)O [pyrophosphate, reference compound]
inhibition of the hydrolysis reaction ([1]; 0.5 equivalents relative to the copper complex): completely inhibited

Molecule: copper (II) triazacyclononane [copper (II) triazacyclononane system]
rate of phosphate diester hydrolysis [2]: 1.3e-06 s⁻¹

Molecule: copper complex of N,N′,N″-triethyl-cis,cis-1,3,5-triaminocyclohexane
treated cells that survive [3]: 15%

pKa from plot of log initial rate versus pH (Dixon method) ([1]; consistent with deprotonation of a copper(II) coordinated water molecule): 7.3
Km ([1]; modified Lineweaver-Burke function, read-out: Michaelis Constant (Km)): 4.4 mM
Molecule: copper complex of N,N′,N″-trimethyl-cis,cis-1,3,5-triaminocyclohexane
rate of phosphate diester hydrolysis relative to the copper (II) triazacyclononane system [1]: approximately 6.5 times faster
maximal velocity (Vmax) ([1]; modified Lineweaver-Burke function): 9.3e-08 s⁻¹
rate acceleration compared to the copper (II) triazacyclononane system [4]: 6.7
concentration producing approximately the same effect, cells treated for 1 hr ([3]; 1 hr, FIG. 2): 4000 µM
concentration producing approximately the same effect, cells treated for 24 hrs ([3]; 24 hrs, FIG. 2): 1000 µM
treated cells that survive [3]: 3%
treated hypoxic cells destroyed [5]: approximately 99%
radiation alone needed for the same effect as radiation plus the copper complex [6]: Approximately twice
